In patent publication US20260284066A1, “TYK2 INHIBITORS AND COMPOSITIONS AND METHODS THEREOF” (LYNK PHARMACEUTICALS CO. LTD., priority 2023, published 2026):
Values after ≈ are worked out from the molar mass of the structure shown.

Legend:
[1] = tested on: Ba/F3-FL-TYK2-P760L cells; assay: Anti-proliferative assay in Ba/F3-FL-TYK2-P760L cells (Cell-Titer Glo); assay type: cell-based
Experimental: These engineered Ba/F3-FL-TYK2-P760L cells were used to monitor JAK inhibitory activities of the compounds in the cellular. […] Cells were seeded at 2000/well of white flat bottom 96-well plates. The well containing medium only was used as background control. […] The test compounds were dissolved in DMSO to a stock concentration of 20 mM. […] The final DMSO concentration was 0.1%. […] The viability was measured by cellular ATP determination using the Cell-Titer Glo luciferase reagent (Promega). The Luminescence value was recorded by a multi-label reader Envision (PerkinElmer). Inhibition Rate was calculated relative to vehicle (DMSO) treated control wells using following formula:
wherein • RLU_compound=the relative light unit of cells treated with test compounds • RLU_blank=the relative light unit of medium with DMSO only • RLU_control=the relative light unit of cells treated with DMSO only

TYK2-JH2 domain = target: T1, TYK2-JH2 domain (Homo sapiens, UniProt P29597); assay: Binding activity test for TYK2 JH2 domain (Tb-antibody/tracer FRET); settings: for JAK1/TYK2 selectivity: ratio of JAK1 JH2 to TYK2 JH2 binding IC50; for IC50: read-out: TYK2 JH2 Binding IC50
T1 construct: JAK1-JH2 domain or TYK2-JH2 domain enzyme
T1 sequence (P29597 589-875 limits assumed): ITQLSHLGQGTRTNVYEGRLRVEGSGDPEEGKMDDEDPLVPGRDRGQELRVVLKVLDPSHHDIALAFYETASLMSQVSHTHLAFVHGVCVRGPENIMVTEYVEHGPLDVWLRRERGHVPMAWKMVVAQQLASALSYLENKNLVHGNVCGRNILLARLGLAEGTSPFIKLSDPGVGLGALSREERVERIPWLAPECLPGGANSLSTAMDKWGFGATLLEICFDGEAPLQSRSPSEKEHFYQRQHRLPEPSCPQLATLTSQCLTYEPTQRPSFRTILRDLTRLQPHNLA

JAK1-JH2 domain = target: T2, JAK1-JH2 domain (Homo sapiens, UniProt P23458); assay: Binding activity test for JAK1 JH2 domain (Tb-antibody/tracer FRET); settings: read-out: JAK1 JH2 Binding IC50
T2 construct: JAK1-JH2 domain or TYK2-JH2 domain enzyme
T2 sequence (P23458 583-855 limits assumed): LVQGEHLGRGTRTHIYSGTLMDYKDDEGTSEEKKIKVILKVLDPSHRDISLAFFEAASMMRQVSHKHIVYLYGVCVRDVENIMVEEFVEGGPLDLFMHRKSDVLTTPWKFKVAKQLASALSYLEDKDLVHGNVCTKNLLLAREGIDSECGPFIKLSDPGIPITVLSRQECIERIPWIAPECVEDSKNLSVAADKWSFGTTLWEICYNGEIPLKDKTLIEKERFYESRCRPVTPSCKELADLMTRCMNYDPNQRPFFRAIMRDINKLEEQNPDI
Experimental: Binding Activity test for JH2 domain of JAK and TYK2
75 nL DMSO for high control and low control.
For low control, add 5 μL/well assay buffer. […] After enzyme system prepared, add 5 μL of Tb-antibody solution into each wells of assay plate. […] After Tb-antibody added, also add 5 μL of tracer into the assay plate. […] Incubate for 60 mins at 25° C. firstly and then continue to incubate the plate at 4° C. overnight. Read by envision in FRET mode. The Luminescence value was recorded by a multi-label reader Envision (PerkinElmer). Inhibition Rate was calculated relative to vehicle (DMSO) treated control wells using following formula:
wherein • RLU_compound=the relative light unit of cells treated with test compounds • RLU_low control=the relative light unit of medium with DMSO only • RLU_high control=the relative light unit of cells treated with DMSO only

[2] = Microsomal metabolic stability assay; assay type: in vitro ADME, human; settings: for microsomal CLint at 1 µM / half-life at 1 µM: human, liver microsomes, pH 7.4, human liver microsomes 0.5 mg/mL; for microsomal CLint at 1 µM: read-out: Human LM Clint; for half-life at 1 µM: read-out: Human LM T½
Experimental: Microsomal Metabolic Stability Assay
Microsomes were pre-incubated with test compound or control compounds for 5 min at 37° C. in 100 mM potassium phosphate buffer, pH 7.4, 1.0 mM EDTA. The reaction was initiated by addition of 15 μL of the NADPH regenerating system to 30 μL of each incubation mixture per time point. The final incubation condition was composed of 0.5 mg/mL microsomal protein, 1 μM test article/positive control, 2 mM NADPH. The 0-minute samples were prepared by addition of a 30 μL aliquot of each incubation mixture to 135 μL quench reagent to precipitate proteins. And then a 15 μL aliquot of the NADPH regenerating system was added. At 5, 15, 30 and 45 minutes, the reaction will be stopped by the addition of cold acetonitrile solution containing internal standard. The samples taken at all time points were centrifuged at 5000×g for 15 minutes. 50 μL of supernatant are taken into 96-well assay plates pre-added with 50 μL ultrapure water, and then analyzed by LC/MS/MS.
Concentrations of test articles, control compounds in the samples were determined by using LC/MS/MS method. Plotting of the chromatograms and peak area integrations are carried out by Analyst (AB Sciex).
In the determination of the in vitro elimination constant (ke) of the control compounds, the analyte/internal standard peak area ratios will be converted to percentage remaining (% Remaining) with the following equation:
The CLint of microsomes was calculated using the formula: CLint (mic)=0.693/T1/2/mg microsome protein per mL. The slope was measured by the natural logarithm of the percentage of the residual compound and time, T1/2 was calculated according to the following formula.

pSTAT1 = assay: Phosphorylation inhibition of STAT in human whole blood (IFN-alpha stimulated, flow cytometry); assay type: cell-based; settings: T-cell, CD3+ T cells, read-out: pSTAT1 inhibition in hWB (IC50)
Experimental: Phosphorylation Inhibition of STAT in Human Whole Blood Testing: The inhibitory potential of test articles in human whole blood assay was evaluated by the method of flow cytometry. IFN-alpha will activate JAK1 and TYK2 kinase in T cells by binding to IFN receptors, and then lead to phosphorylation of STAT1 and STAT2. The phosphorylated STAT1 enter nuclear and promote transcription and expression of IFN-gamma. To evaluate the efficacy of TYK2i in T cells, freshly collected human whole blood will be stimulated with certain unit of human IFN-alpha (Universal Type I IFN (1MU), R&D, 11200-2) for 20 mins in incubator. After stimulation, fix cells with PhosflowTM Fix Buffer I (BD, 557870), and then collect fixed cells by centrifugation (500 g, 8 min). Wash cells once with pre-cooled PBS, and then permeabilize cells with cold Perm Buffer III buffer (BD, 558050) for 45 mins on ice. Collect cells by centrifugation (600 g, 8 min) and washed twice with cold PBS. Stain cells with anti-human CD3(FITC Mouse Anti-Human CD3, BD, 555332) and anti-pSTAT1_Y701 (Alexa Fluor 647 Mouse Anti-Stat1 ([…]), BD, 612597) antibodies. Detect pSTAT1 by flow cytometry (CytoFlex S) and analyze data with FlowJo and GraphPad Prism 8 software. IC50 values of test articles were determined using 4-parameter logistic equation.

Kinetic solubility = assay type: physicochemical; settings: aqueous buffer, 100 mM pH 7.4 phosphate buffer, 1% DMSO, room temperature, read-out: Kinetics Solubility_PBS7.4
Experimental: Aliquots of 8 μL of reference and test compound stock solutions (10 mM/5 mM) are added into 792 μL of 100 mM pH 7.4 phosphate buffer. The final DMSO concentration is 1%. Sample tubes are shaken for 2 hours at 1000 rpm at room temperature. Samples are centrifuged at 12000 rpm for 10 min to precipitate un-dissolved particles. And transfer the supernatants to a new tube or plate. Add 5 μL of samples (no diluted, 10 times diluted and 100 times diluted) and standard curve samples to 95 μL of ACN containing IS for LC-MS/MS analysis.

JAK2 = target: T3, JAK2 (Homo sapiens, UniProt O60674); assay: JAK2 kinase activity, microfluidic assay (Caliper); assay type: biochemical; settings: JAK2 1.5 nM, 1 mM ATP
T3 construct: purchased Carna Biosciences
T3 sequence (O60674 849-1124 limits assumed): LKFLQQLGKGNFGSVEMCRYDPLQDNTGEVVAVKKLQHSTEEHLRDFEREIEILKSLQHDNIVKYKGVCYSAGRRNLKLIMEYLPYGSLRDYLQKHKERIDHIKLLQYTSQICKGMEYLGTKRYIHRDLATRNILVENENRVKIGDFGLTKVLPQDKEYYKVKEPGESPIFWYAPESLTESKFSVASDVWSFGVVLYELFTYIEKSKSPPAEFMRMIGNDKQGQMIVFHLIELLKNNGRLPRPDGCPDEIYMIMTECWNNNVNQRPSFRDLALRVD
Experimental: (§1) Testing for JAK1, JAK2 and TYK2 Kinase Activities
(§2) JAK activity was determined in the reaction buffer 50 mM HEPES, 0.01% Brij35, 10 mM MgCl2, 2 mM DTT by a microfluidic assay. The phosphorylation of a FAM labeled peptide substrate was monitored in the Caliper EZ Reader II (Perkin Elmer). The assay condition for each batch of enzyme (Carna Biosciences) was optimized to obtain 10% conversion rate of peptide substrate.
(§3) The test compounds were dissolved in DMSO to a stock concentration of 10 mM. Three-fold serially diluted compounds with top concentration of 5 μM were pre-incubated with JAK1, JAK2 or TYK2 for 10 min at ambient temperature. The final DMSO concentration of assay mixture was 1%. […] The reaction was stopped by adding 50 mM EDTA.
(§4) And the well without compound but with equivalent DMSO was defined as no inhibition. The percent inhibition was calculated by the following formula:
(§5) wherein • Conversion %_max=the conversion rate in the positive well without addition of compound • Conversion %_sample=the conversion rate of test compounds • Conversion %_min=the conversion rate in the well without addition of enzyme
(§6) The dose-response (percent inhibition) curve was plotted and IC50 values were determined by GraphPad software. The IC50 values of tested compounds were list in Table 3.

TYK2 pathway = assay: IFN-γ release in NK92 cells stimulated by IL-12 (ELISA); assay type: cell-based; settings: Homo sapiens, IL-12 2.5 ng/mL
Excerpt: IFN-γ Release in NK92 Cells Stimulated by IL-12
Purpose: To evaluate the inhibition activity of TYK2 inhibitors in NK92 cells on TYK2 pathway through ELISA method.

TYK2 = target: T4, TYK2 (Homo sapiens, UniProt P29597); assay: TYK2 kinase activity, microfluidic assay (Caliper); assay type: biochemical; settings: TYK2 20 nM, 1 mM ATP
T4 construct: purchased Carna Biosciences
T4 sequence (P29597 897-1176 limits assumed): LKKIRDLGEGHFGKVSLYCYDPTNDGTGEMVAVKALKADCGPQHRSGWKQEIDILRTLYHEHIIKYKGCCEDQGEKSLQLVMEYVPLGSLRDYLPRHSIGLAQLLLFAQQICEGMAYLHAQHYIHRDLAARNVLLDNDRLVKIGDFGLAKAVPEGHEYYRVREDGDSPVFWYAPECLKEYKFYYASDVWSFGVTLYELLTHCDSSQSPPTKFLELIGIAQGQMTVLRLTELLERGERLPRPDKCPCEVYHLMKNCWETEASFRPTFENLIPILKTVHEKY
Experimental: as §1, §2, §3, §4, §5, §6

JAK1 = target: T5, JAK1 (Homo sapiens, UniProt P23458); assay: JAK1 kinase activity, microfluidic assay (Caliper); assay type: biochemical; settings: JAK1 10 nM, 1 mM ATP
T5 construct: purchased Carna Biosciences
T5 sequence (P23458 875-1153 limits assumed): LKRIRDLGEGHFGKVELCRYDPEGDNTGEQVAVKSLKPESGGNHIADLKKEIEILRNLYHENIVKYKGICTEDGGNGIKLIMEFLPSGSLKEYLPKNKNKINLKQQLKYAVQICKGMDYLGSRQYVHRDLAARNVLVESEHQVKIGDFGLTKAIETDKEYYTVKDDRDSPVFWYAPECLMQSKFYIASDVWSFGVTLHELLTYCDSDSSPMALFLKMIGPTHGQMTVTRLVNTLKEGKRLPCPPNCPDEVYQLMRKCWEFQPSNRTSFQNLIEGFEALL
Experimental: as §1, §2, §3, §4, §5, §6

[3] = human liver microsomes 0.5 mg/mL, 1 μM

Compound | IC50 [1] [nM] | JAK1/TYK2 selectivity (TYK2-JH2 domain) | IC50 (TYK2-JH2 domain) [nM] | IC50 (JAK1-JH2 domain) [nM] | microsomal CLint at 1 µM [2] [µL/min/mg] | half-life at 1 µM [2] [min] | Human LM Clint [2, 3] [µL/min/mg] | Human LM T½ [2, 3] [min] | IC50 (pSTAT1) [nM] | solubility kinetic at 2 h (Kinetic solubility) [µM] | IC50 (JAK2) [nM] | IC50 (TYK2 pathway) [nM] | IC50 (TYK2) [nM] | IC50 (JAK1) [nM]
[2H]C([2H])([2H])NC(=O)c1cnc(NC(=O)C2CC2)cc1Nc1ncn2ncc(C(C)C(F)(F)F)c2c1OC (single isomer, unassigned) [Example 5A, (R*)-6-(Cyclopropanecarboxamido)-4((4-methoxy-3-(1,1,1-trifluoropropan-2-yl)pyrazolo[1,5-c]pyrimidin-5-yl)amino)-N-(methyl-d3)nicotinamide] | > 5000 | >197.55 | 1.51 | > 298 | 57.5 | 24.1 | – | – | – | – | – | – | – | –
[2H]C([2H])([2H])NC(=O)c1cnc(NC(=O)C2CC2)cc1Nc1ncn2ncc(C(C)C(F)(F)F)c2c1OC (single isomer, unassigned) [Example 5B, (S*)-6-(Cyclopropanecarboxamido)-4-((4-methoxy-3-(1,1,1-trifluoropropan-2-yl)pyrazolo[1,5-c]pyrimidin-5-yl)amino)-N-(methyl-d3)nicotinamide] | 62.3 | 716.05 | 0.197 | 141 | – | – | 47.61 | 29.11 | – | – | – | – | – | –
[2H]C([2H])([2H])NC(=O)c1cnc(NC(=O)C2CC2)cc1Nc1ncc2cnn(C(C)C(F)(F)F)c2c1OC (stereo not drawn) [Example 3, 6-(Cyclopropanecarboxamido)-4-((7-methoxy-1-(1,1,1-trifluoropropan-2-yl)-1H-pyrazolo[4,3-c]pyridin-6-yl)amino)-N-(methyl-d3)nicotinamide] | 164 | 177.55 | 0.682 | 121 | 5.8 | 239 | – | – | – | – | – | – | – | –
[2H]C([2H])([2H])NC(=O)c1cnc(Nc2ccc(N3CCOCC3)cn2)cc1Nc1ccc2cnn(CC(C)(F)F)c2c1OC [Example 4, 4-((1-(2,2-Difluoropropyl)-7-methoxy-1H-indazol-6-yl)amino)-N-(methyl-d3)-6-((5-morpholinopyridin-2-yl)amino)nicotinamide] | – | 51.23 | 0.165 | 8.45 | – | – | – | – | 152 | 61.8 (≈ 34.3 µg/mL) | > 20000 | 14 | > 20000 | > 20000
[2H]C([2H])([2H])NC(=O)c1cnc(NC(=O)C2CC2)cc1Nc1ncn2ncc(C(C)C(F)(F)F)c2c1OC (stereo not drawn) [Example 5, 6-(Cyclopropanecarboxamido)-4-((4-methoxy-3-(1,1,1-trifluoropropan-2-yl)pyrazolo[1,5-c]pyrimidin-5-yl)amino)-N-(methyl-d3)nicotinamide] | 52.4 | 590.59 | 0.271 | 160 | – | 27.7 | 50.06 | – | – | – | – | – | – | –
[2H]C([2H])([2H])NC(=O)c1cnc(NC(=O)C2CC2)cc1Nc1ccc2ccn(CC(C)(F)F)c2c1OC [Example 17, 6-(Cyclopropanecarboxamido)-4-((1-(2,2-difluoropropyl)-7-methoxy-1H-indol-6-yl)amino)-N-(methyl-d3)nicotinamide] | – | 121.60 | 0.341 | 41.5 | – | – | – | – | – | 11.1 (≈ 5.12 µg/mL) | – | 21.7 | – | –
CNC(=O)c1cnc(NC(=O)C2CC2)cc1Nc1ncc2cnn(CC(C)(F)F)c2c1OC [Example 23, 6-(Cyclopropanecarboxamido)-4-((1-(2,2-difluoropropyl)-7-methoxy-1H-pyrazolo[4,3-c]pyridin-6-yl)amino)-N-methylnicotinamide] | – | 398.70 | 0.315 | 126 | – | – | – | – | – | – | > 20000 | 17.4 | > 20000 | > 20000
[2H]C([2H])([2H])NC(=O)c1nnc(NC(=O)C2CC2)cc1Nc1ncc2cnn(CC(C)(F)F)c2c1OC [Example 24, 6-(Cyclopropanecarboxamido)-4-((1-(2,2-difluoropropyl)-7-methoxy-1H-pyrazolo[4,3-c]pyridin-6-yl)amino)-N-(methyl-d3)pyridazine-3-carboxamide] | – | 79.86 | 0.271 | 21.6 | 4.16 | 333 | – | – | – | – | > 20000 | 8.94 | > 20000 | > 20000
